Assay results taken from patent US8497261B2, “3-aminocaprolactam compounds for treating inflammatory disorders” (Cambridge Enterprise Limited, priority 2004, dated 2013).

Experiments:
[1] = cited from earlier work
Stability in human serum = assay type: in vitro ADME; details: 37° C.
Description: As an approach to identifying such stable anlogs, various derivatives of (S)-3-(undec-10-enoyl)-aminoglutarimide have been tested for their stability in serum.

[2] = test system: chemokine-induced migration; test: Chemokine-induced migration in vitro (prior compounds); assay type: cell-based; details: compared with (S)-3-(undec-10-enoyl)-aminoglutarimide

For CCCCC[C@H]1CC[C@H](C(=O)N[C@H]2CCCNC(=O)C2)CC1 [Example 4, (S)-3-(trans-4′-pentylcyclohexane-1-carbonyl)amino-caprolactam], the melting point was 182 to 184 °C.
In the case of “c(DCys-DG1n-DIle-DTrp-DLys-DG1n-DLys-DPro-DAsp-DLeu-DCys)-NH2 [NR583.14.3]”, the “half-life period of clearance from blood plasma” value ([1]; after intravenous injection) is given as “less than 30 minutes” and the oral bioavailability ([1]; in vivo, po) is given as “not orally bioavailable”.
In the case of C=CCCCCCCCCC(=O)[C@@H]1CCCNC1=O [(S)-3-(undec-10-enoyl)-tetrahydropyridin-2-one], the “time completely stable in human serum” value (Stability in human serum) is reported as “at least 7 days” and the “potency compared with the parental molecule” value [2] is reported as “considerably reduced potency”.
